Test results published in ChEMBL document CHEMBL3044606, “Binding of sodium houttuyfonate analogues to bovine serum albumin revealed by fluoresence quenching study” (Med Chem Res, 2010).

What was measured:
Format in all cases: ADME
Conditions in all cases: cattle, isolated protein; call rule not given here
[1] = target: T1, Albumin (Bos taurus, UniProt P02769); test: Binding affinity to Bos taurus (bovine) serum albumin assessed as decrease in decrease in absorption at 50 uM after 5 min by UV-Vis spectrophotometric analysis; parameters: scale not given: the % may be the effect or the level left
[2] = target: T1, Albumin; test: Binding affinity to Bos taurus (bovine) serum albumin after 5 min at 37 degC by Stern-Volmer plot analysis
[3] = target: T1, Albumin; test: Binding affinity to Bos taurus (bovine) serum albumin after 5 min at 25 degC by Stern-Volmer plot analysis
[4] = target: T1, Albumin; test: Binding affinity to Bos taurus (bovine) serum albumin assessed as shift in emission wavelength at 25 to 200 uM after 5 min by fluorimetric analysis
[5] = target: T1, Albumin; test: Binding affinity to Bos taurus (bovine) serum albumin assessed as decrease in fluorescence at 1:25 protein:compound ratio after 5 min by fluorimetric analysis
[6] = target: T1, Albumin; test: Binding affinity to Bos taurus (bovine) serum albumin assessed as decrease in fluorescence after 5 min by fluorimetric analysis

T1 sequence (P02769 whole entry): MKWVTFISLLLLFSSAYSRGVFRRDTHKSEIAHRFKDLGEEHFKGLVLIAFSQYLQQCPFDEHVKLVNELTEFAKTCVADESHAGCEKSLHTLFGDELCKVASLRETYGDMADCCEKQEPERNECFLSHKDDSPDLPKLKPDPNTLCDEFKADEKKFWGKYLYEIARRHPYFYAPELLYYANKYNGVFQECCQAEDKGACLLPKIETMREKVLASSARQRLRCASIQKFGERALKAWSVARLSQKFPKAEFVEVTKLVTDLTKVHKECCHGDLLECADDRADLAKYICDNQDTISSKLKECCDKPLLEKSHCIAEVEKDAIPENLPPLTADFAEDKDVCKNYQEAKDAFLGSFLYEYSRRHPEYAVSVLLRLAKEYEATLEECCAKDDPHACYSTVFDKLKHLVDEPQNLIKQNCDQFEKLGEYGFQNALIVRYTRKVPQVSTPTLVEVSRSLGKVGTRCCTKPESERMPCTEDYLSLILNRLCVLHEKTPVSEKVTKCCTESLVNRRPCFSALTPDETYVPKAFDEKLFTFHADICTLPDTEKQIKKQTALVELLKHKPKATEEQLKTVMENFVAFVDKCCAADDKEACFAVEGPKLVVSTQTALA

Structure (SMILES) | Activity [1] [%] | KSV [2] [×10³ /M] | Kq [2] [×10¹² /M/s] | K [3] [×10⁶ /M] | KSV [3] [×10³ /M] | Kq [3] [×10¹² /M/s] | Activity [4] | Activity [5] | Activity [6]
CCCCCCCCCC(=O)CC(O)S(=O)(=O)[O-].[Na+] (stereo not given) [SODIUM HOUTTUYFONATE] | 90 | 113 | 11.3 | 84.606 | 217.3 | 21.73 | Not Active | Active | Dose-dependent effect
CCCCCCCCCCCC(=O)CC(O)S(=O)(=O)[O-].[Na+] (stereo not given) [DODECANOYL ACETAL SODIUM SULFITE] | 90 | 72 | 7.2 | 0.197 | 147.9 | 14.79 | Not Active | Active | Dose-dependent effect
CCCCCC(=O)CC(O)S(=O)(=O)[O-].[Na+] (stereo not given) [HEXANOYL ACETAL SODIUM SULFITE] | 50 | 73.5 | 7.35 | 6.7081 | 36.7 | 3.67 | Not Active | Not Active | Dose-dependent effect
CCCCCCCCCCCCCC(=O)CC(O)S(=O)(=O)[O-].[Na+] (stereo not given) [TETRADECANOYL ACETAL SODIUM SULFITE] | 90 | 93.2 | 9.32 | 1360.5 | 121.7 | 12.17 | Not Active | Active | Dose-dependent effect
CCCCCCCC(=O)CC(O)S(=O)(=O)[O-].[Na+] (stereo not given) [OCTANOYL ACETAL SODIUM SULFITE] | 50 | 529.2 | 52.92 | 691.83 | 381.3 | 38.13 | Not Active | Active | Dose-dependent effect
